Assay results: PubChem BioAssay (NCI)
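Growth conditions: 96-well plates. Treatment: test compound, 48 hours, 5 concentrations. Analysis: linear interpolation between bracketing concentrations; unreached endpoints set to highest concentration. The concentration for 50% growth inhibition is given as GI50. At the TGI there is no net growth.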

Legend:
Test in all cases: NCI-60 cell line screen, 48 h
OVCAR-8 ovarian = test system: OVCAR-8 ovarian
COLO 205 colon = test system: COLO 205 colon
CAKI-1 renal = test system: CAKI-1 renal
CCRF-CEM leukemia = test system: CCRF-CEM leukemia
SF-268 CNS = test system: SF-268 CNS
SNB-19 CNS = test system: SNB-19 CNS
SR leukemia = test system: SR leukemia

SMILES	TGI (OVCAR-8 ovarian)	TGI (COLO 205 colon)	TGI (CAKI-1 renal)	TGI (CCRF-CEM leukemia)	TGI (SF-268 CNS)	TGI (SNB-19 CNS)	TGI (SR leukemia)	GI50 (OVCAR-8 ovarian)	GI50 (COLO 205 colon)	GI50 (CAKI-1 renal)	GI50 (SF-268 CNS)	GI50 (SNB-19 CNS)
O=C(CC(=O)C1CCOC1=O)C(=O)Nc1ccc(Cl)cc1Cl (configuration not stated)	> 100 µM	> 100 µM	> 100 µM	> 100 µM	> 100 µM	> 100 µM	–	–	–	–	–	–
COC(=O)C(Cc1nc2ccc(Cl)cc2[nH]c1=O)/C(=N/NC(N)=O)C(=O)Nc1ccc(Cl)cc1 (configuration not stated)	> 100 µM	> 100 µM	> 100 µM	> 100 µM	> 100 µM	> 100 µM	> 100 µM	–	–	–	–	–
COCCOCC(=O)N(CCn1ccc(NC(c2ccccc2)(c2ccccc2)c2ccccc2)nc1=O)CCn1cnc2nc(N)[nH]c(=O)c21	> 100 µM	> 100 µM	> 100 µM	> 100 µM	> 100 µM	–	> 100 µM	–	–	–	–	–
Cn1c2c(c3ccccc31)CCN(CCCCN1CCN(c3cccc(Cl)c3)CC1)C2=O	48 µM	11.2 µM	> 100 µM	> 100 µM	49.9 µM	42.8 µM	–	–	–	–	–	–
CCCCCCCCCCCCN(O)C(=O)c1ccccc1	74.3 µM	–	–	> 100 µM	72.2 µM	> 100 µM	> 100 µM	–	–	–	–	–
O=C(O)Cn1c(=O)[nH]c(=O)c2c1ncn2Cc1ccccc1	> 100 µM	> 100 µM	> 100 µM	> 100 µM	> 100 µM	> 100 µM	> 100 µM	–	–	–	–	–
Cc1ccc2[nH]c3c(ncc4[nH]c5ccccc5c43)c2c1	35.9 µM	34.3 µM	31.6 µM	35.9 µM	32.4 µM	31.6 µM	–	–	–	–	–	–
CN(C)c1n/c(=N/c2ncn[nH]2)ss1	> 100 µM	–	> 100 µM	> 100 µM	> 100 µM	> 100 µM	> 100 µM	–	–	–	–	–
CC(C)(C)C(=O)O[C@@H]1COC2C(O)COC21 (some centres not stated)	> 100 µM	> 100 µM	> 100 µM	> 100 µM	> 100 µM	> 100 µM	> 100 µM	–	–	–	–	–
N#CC1(C=O)c2ccccc2C=CN1C(=O)c1ccccc1 (configuration not stated)	> 100 µM	> 100 µM	> 100 µM	78.4 µM	> 100 µM	> 100 µM	66.5 µM	–	–	–	–	–
CC(=O)[O-].O=C([CH-]C(=O)c1ccccc1)c1ccccc1.O=C([CH-]C(=O)c1ccccc1)c1ccccc1.[Y+3]	20.6 µM	22.1 µM	19.4 µM	–	31.3 µM	64.7 µM	–	3.04 µM	8.61 µM	4.53 µM	4.27 µM	6.17 µM
COc1ccc(/C(=N/NC(N)=O)C(c2ccc(OC)cc2)C2C(=O)Oc3ccccc32)cc1 (configuration not stated)	> 100 µM	> 100 µM	> 100 µM	> 100 µM	> 100 µM	> 100 µM	> 100 µM	–	–	–	–	–
COc1cc([C@@H]2c3cc4c(cc3[C@@H](NC(=O)c3cccc(F)c3)C3COC(=O)[C@@H]32)OCO4)cc(OC)c1O (some centres not stated)	16.1 µM	22.1 µM	22.5 µM	> 100 µM	> 100 µM	14.2 µM	–	–	–	–	–	–
CN(C)c1ccc(/C=N\N2C(=O)c3ccccc3C2=O)cc1	> 100 µM	–	> 100 µM	> 100 µM	> 100 µM	> 100 µM	> 100 µM	–	–	–	–	–
O=C1C2c3[nH]c4ccccc4c3[C@@H]3CCCCC3C2C(=O)N1c1ccccc1 (some centres not stated)	52.9 µM	33.6 µM	–	80.1 µM	62.9 µM	> 100 µM	77.8 µM	–	–	–	–	–
c1ccc(COCC2OC3c4ccccc4COC3C2OCc2ccccc2)cc1 (configuration not stated)	> 100 µM	> 100 µM	> 100 µM	–	–	> 100 µM	> 100 µM	–	–	–	–	–
COc1ccc(CNc2nc3c(NC(C)=O)cc(C(F)(F)F)cc3nc2-c2ccccc2)cc1OC	> 100 µM	> 100 µM	> 100 µM	> 100 µM	> 100 µM	> 100 µM	–	–	–	–	–	–
COC(OC)[C@@H](C)[C@H](O)[C@](C)(O)C1OC(C)(C)OC(C(C)C=C(C)C)C1C (some centres not stated)	> 100 µM	> 100 µM	> 100 µM	> 100 µM	> 100 µM	> 100 µM	> 100 µM	–	–	–	–	–
O=C(NO)C(=O)Nc1ccc(Cl)cc1[N+](=O)[O-]	> 100 µM	> 100 µM	> 100 µM	> 100 µM	> 100 µM	> 100 µM	> 100 µM	–	–	–	–	–
Cc1cc(C)c(S(=O)(=O)ONC(=O)OC(C)(C)C)c(C)c1	> 100 µM	> 100 µM	> 100 µM	> 100 µM	> 100 µM	> 100 µM	–	–	–	–	–	–
CCOC(=O)NC(=O)c1cn(CCN2CCN(C(=O)CCCCCCCCCCNc3ncnc4nc[nH]c34)CC2)c(=O)[nH]c1=O	> 100 µM	> 100 µM	> 100 µM	> 100 µM	> 100 µM	> 100 µM	> 100 µM	–	–	–	–	–
OC(c1ccccn1)C1CNc2ccccc21 (configuration not stated)	> 100 µM	> 100 µM	> 100 µM	> 100 µM	> 100 µM	> 100 µM	–	–	–	–	–	–
